# Reference: paper PMC9506414, “Novel 2,6,9-Trisubstituted Purines as Potent CDK Inhibitors Alleviating Trastuzumab-Resistance of HER2-Positive Breast Cancers” (Pharmaceuticals, 2022)
# Legend:
# CDK12/CyclinK = CDK12/CyclinK (Homo sapiens, UniProt Q9NYV4); assay: In vitro CDK12/cyclinK kinase assay; assay type: biochemical; design: purchased Reaction Biology Corp. (CRO that ran the assay); conditions: Tables 1-4; read-out: CDK12/CyclinK (IC50/μM)
# Procedure: In vitro CDK12/cyclinK assays for all compounds and in vitro kinome-wide inhibition profiling of 30d at 10 μM were performed by a CRO company (Reaction Biology Corp., San Diego, CA, USA).
# SK-Br3 cells = assay: Antiproliferation assay (Cell-titer Glo, 72 h); assay type: cell-based; conditions: Homo sapiens, SK-BR-3; 72 h; means and standard deviations from three independent assays; read-out: SK-Br3 (GI50/μM)
# Procedure: (§1) Breast-cancer cell lines (SK-Br3, HCC-1954) were purchased from Korea Cell Line Bank (Seoul, Korea) and were cultured in RPMI medium supplemented with 10% FBS and penicillin/streptomycin (Welgene, Seoul, Korea). All cell lines were maintained at 37 °C in a cell incubator in the presence of 5% CO2.
# (§2) Breast-cancer cells in culture media (100 μL volume/well, 5000 SK-Br3 cells/well, 1000 HCC-1954 cells/well) were seeded in tissue culture-treated 96-well plates, and incubated at a cell incubator for 24 h. Serially diluted compounds (3-fold, 10 point from 10 mM, duplicated) were pre-plated and 500 nL of compound solutions were pin-transferred to the cells in the assay plates using pintool system (JANUS liquid handler, PerkinElmer, Waltham, MA, USA) and incubated at a cell incubator for 72 h. Cell-titer Glo^TM reagent (50 μL, Promega Corp., Madison, WI, USA) was added to each well, and the luminescence signal was read using an Envision^TM plate reader (PerkinElmer, Waltham, MA, USA). The titration curve fitting and IC50 values were generated using Prism 7.0 s/w (GraphPad, San Diego, CA, USA).
# HCC1954 cells = assay: Antiproliferation assay (Cell-titer Glo, 72 h); assay type: cell-based; conditions: Homo sapiens, 72 h, means and standard deviations from three independent assays, read-out: HCC1954 (GI50/μM)
# Procedure: as §1, §2
# Sequence of CDK12/CyclinK (Q9NYV4 whole entry): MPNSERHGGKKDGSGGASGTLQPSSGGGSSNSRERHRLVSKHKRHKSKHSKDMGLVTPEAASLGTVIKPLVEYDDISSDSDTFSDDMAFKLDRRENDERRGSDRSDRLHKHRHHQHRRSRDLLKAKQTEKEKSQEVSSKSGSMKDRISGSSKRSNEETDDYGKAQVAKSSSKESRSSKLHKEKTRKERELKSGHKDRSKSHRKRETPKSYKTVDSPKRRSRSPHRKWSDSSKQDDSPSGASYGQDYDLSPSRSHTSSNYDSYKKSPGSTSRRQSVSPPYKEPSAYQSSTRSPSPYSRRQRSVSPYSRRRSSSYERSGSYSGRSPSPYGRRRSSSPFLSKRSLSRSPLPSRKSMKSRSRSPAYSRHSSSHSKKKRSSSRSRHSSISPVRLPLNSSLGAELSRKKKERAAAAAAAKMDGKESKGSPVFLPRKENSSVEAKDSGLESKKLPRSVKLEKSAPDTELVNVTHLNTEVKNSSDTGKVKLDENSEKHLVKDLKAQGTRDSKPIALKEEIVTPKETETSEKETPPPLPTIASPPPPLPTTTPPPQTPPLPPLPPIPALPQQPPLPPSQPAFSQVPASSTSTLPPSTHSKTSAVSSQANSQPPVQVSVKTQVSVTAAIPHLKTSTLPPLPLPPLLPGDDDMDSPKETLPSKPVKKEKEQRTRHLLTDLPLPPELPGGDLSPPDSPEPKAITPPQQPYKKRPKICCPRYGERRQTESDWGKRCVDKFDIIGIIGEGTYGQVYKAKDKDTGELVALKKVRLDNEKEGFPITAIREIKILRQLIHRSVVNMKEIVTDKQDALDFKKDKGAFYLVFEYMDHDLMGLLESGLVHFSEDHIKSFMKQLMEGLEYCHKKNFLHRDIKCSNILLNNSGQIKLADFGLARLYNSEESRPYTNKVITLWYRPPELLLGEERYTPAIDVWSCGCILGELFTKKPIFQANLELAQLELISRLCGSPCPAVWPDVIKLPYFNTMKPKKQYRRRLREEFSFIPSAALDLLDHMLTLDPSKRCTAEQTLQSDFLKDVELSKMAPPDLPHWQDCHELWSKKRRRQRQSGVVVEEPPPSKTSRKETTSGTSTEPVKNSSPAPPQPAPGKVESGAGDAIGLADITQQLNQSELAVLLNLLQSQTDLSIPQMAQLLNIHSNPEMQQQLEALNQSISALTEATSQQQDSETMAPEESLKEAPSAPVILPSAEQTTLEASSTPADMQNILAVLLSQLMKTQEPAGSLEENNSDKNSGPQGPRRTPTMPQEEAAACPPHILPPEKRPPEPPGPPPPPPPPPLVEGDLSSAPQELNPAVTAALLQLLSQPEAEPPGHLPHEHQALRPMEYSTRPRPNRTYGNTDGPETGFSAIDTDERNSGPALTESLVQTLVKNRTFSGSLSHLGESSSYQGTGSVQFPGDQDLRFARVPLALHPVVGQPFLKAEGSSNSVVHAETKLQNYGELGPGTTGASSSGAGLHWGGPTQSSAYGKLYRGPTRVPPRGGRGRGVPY
# Sequence of CDK12/CyclinK (O75909 whole entry partner): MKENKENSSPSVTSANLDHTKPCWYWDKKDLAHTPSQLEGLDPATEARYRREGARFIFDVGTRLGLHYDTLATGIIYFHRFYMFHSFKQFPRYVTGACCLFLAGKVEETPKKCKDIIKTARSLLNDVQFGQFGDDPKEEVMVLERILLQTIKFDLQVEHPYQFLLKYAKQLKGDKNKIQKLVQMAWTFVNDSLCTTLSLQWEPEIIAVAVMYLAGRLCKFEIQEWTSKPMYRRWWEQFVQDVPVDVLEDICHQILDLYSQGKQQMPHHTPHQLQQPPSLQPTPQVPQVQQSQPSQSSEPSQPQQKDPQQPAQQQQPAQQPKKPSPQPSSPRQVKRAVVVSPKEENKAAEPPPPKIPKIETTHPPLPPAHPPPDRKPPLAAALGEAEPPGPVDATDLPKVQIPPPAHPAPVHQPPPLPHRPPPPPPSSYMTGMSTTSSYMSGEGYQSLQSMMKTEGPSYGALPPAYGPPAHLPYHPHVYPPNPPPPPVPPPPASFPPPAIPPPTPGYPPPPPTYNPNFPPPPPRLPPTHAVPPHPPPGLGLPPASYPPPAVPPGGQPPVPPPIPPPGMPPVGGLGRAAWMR
Compound,IC50 (CDK12/CyclinK),GI50 (SK-Br3 cells),GI50 (HCC1954 cells)
"CC(C)n1cnc2c(NCc3ccc(-c4cccnc4)nc3)nc(-c3ccccc3NCCCO)nc21 [Compound 20b, 3-((2-(6-(([2,3′-Bipyridin]-5-ylmethyl)amino)-9-isopropyl-9H-purin-2-yl)phenyl)amino)propan-1-ol]",3.01 µM,11.2 ± 1.12 µM,6.05 ± 0.351 µM
"CC(C)n1cnc2c(NCc3ccc(-c4cccnc4)nc3)nc(-c3cccc(NCCCO)c3)nc21 [Compound 20c, 3-((3-(6-(([2,3′-Bipyridin]-5-ylmethyl)amino)-9-isopropyl-9H-purin-2-yl)phenyl)amino)propan-1-ol]",0.257 µM,0.732 ± 0.177 µM,0.502 ± 0.025 µM
"CC(C)n1cnc2c(NCc3ccc(-c4cccnc4)nc3)nc(-c3ccc(NCCCO)cc3)nc21 [Compound 20d, 3-((4-(6-(([2,3′-Bipyridin]-5-ylmethyl)amino)-9-isopropyl-9H-purin-2-yl)phenyl)amino)propan-1-ol]",0.499 µM,1.09 ± 0.127 µM,0.907 ± 0.068 µM
"CC(C)n1cnc2c(NCc3ccc(-c4cccnc4)nc3)nc(-c3ccc(F)nc3)nc21 [Compound 21a, N-([2,3′-Bipyridin]-5-ylmethyl)-2-(6-fluoropyridin-3-yl)-9-isopropyl-9H-purin-6-amine]",0.147 µM,1.7 ± 0.165 µM,1.33 ± 0.393 µM
"CC(C)n1cnc2c(NCc3ccc(-c4cccnc4)nc3)nc(-c3ccnc(F)c3)nc21 [Compound 21b, N-([2,3′-Bipyridin]-5-ylmethyl)-2-(2-fluoropyridin-4-yl)-9-isopropyl-9H-purin-6-amine]",0.164 µM,1.68 ± 0.267 µM,1.27 ± 0.021 µM
"CC(C)n1cnc2c(NCc3ccc(-c4cccnc4)nc3)nc(-c3ccc(NCCO)nc3)nc21 [Compound 22a, 2-((5-(6-(([2,3′-Bipyridin]-5-ylmethyl)amino)-9-isopropyl-9H-purin-2-yl)pyridin-2-yl)amino)ethan-1-ol]",0.053 µM,0.262 ± 0.021 µM,0.174 ± 0.019 µM
"CC(C)n1cnc2c(NCc3ccc(-c4cccnc4)nc3)nc(-c3ccc(NCCCO)nc3)nc21 [Compound 22b, 3-((5-(6-(([2,3′-Bipyridin]-5-ylmethyl)amino)-9-isopropyl-9H-purin-2-yl)pyridin-2-yl)amino)propan-1-ol]",0.304 µM,1.18 ± 0.118 µM,0.977 ± 0.07 µM
"CC(C)n1cnc2c(NCc3ccc(-c4cccnc4)nc3)nc(-c3ccnc(NCCO)c3)nc21 [Compound 22c, 2-((4-(6-(([2,3′-Bipyridin]-5-ylmethyl)amino)-9-isopropyl-9H-purin-2-yl)pyridin-2-yl)amino)ethan-1-ol]",0.086 µM,0.473 ± 0.087 µM,0.433 ± 0.052 µM
"CC(C)n1cnc2c(NCc3ccc(-c4cccnc4)nc3)nc(-c3ccnc(NCCCO)c3)nc21 [Compound 22d, 3-((4-(6-(([2,3′-Bipyridin]-5-ylmethyl)amino)-9-isopropyl-9H-purin-2-yl)pyridin-2-yl)amino)propan-1-ol]",0.113 µM,0.48 ± 0.026 µM,0.387 ± 0.037 µM
"Cc1cc(N)n(-c2nc(NCc3ccc(-c4cccnc4)nc3)c3ncn(C(C)C)c3n2)n1 [Compound 24, N-([2,3′-Bipyridin]-5-ylmethyl)-2-(5-amino-3-methyl-1H-pyrazol-1-yl)-9-isopropyl-9H-purin-6-amine]",2.35 µM,5.16 ± 0.365 µM,3.44 ± 0.177 µM
"CC(C)n1cnc2c(NCc3ccc(-c4cccnc4)nc3)nc(-n3cc(CO)nn3)nc21 [Compound 26a, (1-(6-(([2,3′-Bipyridin]-5-ylmethyl)amino)-9-isopropyl-9H-purin-2-yl)-1H-1,2,3-triazol-4-yl)methanol]",2.05 µM,13.3 ± 3.15 µM,9.97 ± 1.86 µM
"CC(C)n1cnc2c(NCc3ccc(-c4cccnc4)nc3)nc(-n3cc(CCO)nn3)nc21 [Compound 26b, 2-(1-(6-(([2,3′-Bipyridin]-5-ylmethyl)amino)-9-isopropyl-9H-purin-2-yl)-1H-1,2,3-triazol-4-yl)ethan-1-ol]",0.539 µM,8.3 ± 0.882 µM,6.16 ± 0.429 µM
